# Marks after values point to notes of the source that are not given here.
# Assays:
# [1] = system: R6/2 transgenic mouse model of HD; assay: Survival of R6/2 mice, intraperitoneal dose response; type: in vivo
# Excerpt: Animals: The Bedford VA Medical Center laboratories have maintained a stable colony of R6/2 HD mice for over 6 years, with founders originating from Jackson Laboratories (Bar Harbor, Me., USA). Male transgenic HD mice of the R6/2 strain were bred with females from their background strain (B6CBAFI/J). Offspring were genotyped using a PCR assay on tail DNA. We have standardized criteria to ensure homogeneity of the cohorts within the testing groups (Dedeoglu et al., 2002). Mice were randomized from 28 litters all within 3 days from the same ‘f’ generation. Body weights were taken at 20 days and mice were equally distributed according to weight within each cohort. Mice under 7 g at 20 days were excluded from the experiments. The animals were housed 5/cage under standard conditions with free access to water and food. The mice were handled under the same conditions by one investigator. Since we have not observed gender differences in survival in the R6/2 transgenic HD mouse model (Ferrante et al., 2000), female mice were used in the experimental paradigms. These experiments were carried out in accordance with the NIH Guide for the Care and Use of Laboratory Animals, and were approved by both the Veterans Administration and Boston University Animal Care Committees.
# Intraperitoneal Dosing: Based upon previous studies (Egorin et al., 1999), a dose response study was performed, treating groups of wild type mice (n=10) and littermate R6/2 mice (n=20) with 100, 200, 400, 600, 1,200, 5,000, and 10,000 mg/kg daily intraperitoneal injection (100 Êl) of sodium butyrate (Acros Organics/Fisher Scientific) dissolved in PBS and made fresh daily. […]
# Survival: R6/2 mice were assessed for morbidity and mortality twice daily, mid morning and late afternoon. Motor performance and ability to feed were closely monitored and used as the basis for determining when to euthanize the mice. […] In addition, deaths occurred overnight and were recorded the following morning. […]
# Statistics: The data are expressed as the mean+standard error of the mean. […] Survival data was analyzed by the Kaplan-Meier survival curves.
# [2] = system: MKP-1, α-globin, β-globin, preproenkephalin mRNA; assay: Real-time PCR of brain mRNAs; type: in vivo, mouse; conditions: Striatum, percentage of untreated R6/2, normalized to β-actin
# Method: Real-time PCR: Reverse transcription of 1 Êg total RNA was conducted with a SuperScript™ First-Strand Synthesis System for RT-PCR (Invitrogen) using random hexamer primers per the manufacturer's instructions. Quantitative real-time PCR studies utilized a Bio-Rad iCycler to follow the amplification of cDNA products by using SYBR_ Green PCR Master Mix (Applied Biosystems) through 50 PCR cycles (95_C for 30 s, 57_C for 1 min, 72_C for 1.5 min). Specific amplification of the target sequences was determined by melt curve analysis and DNA sequencing. Primer pair sequences were as follows: Preproenkephalin (XM—131313) GTGTCCAGGCCCGAGTTC and […]; MKP-1 (NM_013642) […] and […]; _-globin (NM_008218) CCACCCTGCCGATTTCA and CCGCAGMGGCAGCTTAAC; _-globin (NM_008220) […] and CCCAGCACAATCACGATCA; _-actin (X03672) AGGTATCCTGACCCTGAAG and […]. Expression of the mRNAs of interest was calculated using the equation: V=(1+E reference)(C t reference)/(1+E target) (C t target) to correct for potential differences in RNA input and PCR primer efficiencies (Livak and Schmittgen, 2001). V=relative value of target gene normalized to reference (_-actin), E=primer efficiency, C t=threshold crossing cycle number. Differences between genotype and treatment groups were assessed using an unpaired, two-tailed Student's t-test.
# [3] = system: mRNA expression in R6/2 striatum and cortex; assay: Microarray gene expression analysis (U74Av2) of striatum and cortex; type: in vivo, mouse; design: key to Array, NaBu Txd R6/2 vs R6/2: I = increased; D = decreased; NC = no change
# Method: Microarray Gene Expression Analysis: Beginning at six weeks of age, four mice were treated for 2 weeks with daily intraperitoneal injections (1.2 g/kg) of sodium butyrate. Mice were euthanized within 60 minutes of the last injection and cortical and striatal brain tissues were dissected separately and snap frozen on dry ice. In parallel, samples from four untreated R6/2 and four wild-type mice were collected in the same manner. One microarray sample was prepared from 10 Êg of total RNA from each tissue and hybridized to one U74Av2 array (Affymetrix). Four independent pair-wise comparisons were performed using MAS 5.0 software (Affymetrix) to evaluate gene expression changes between sodium butyrate-treated R6/2 and untreated R6/2 animals and between untreated R6/2 and untreated wild-type animals. Difference calls were scored, and only mRNAs that received difference calls in the same direction (increased or decreased) in at least 3 of the 4 pair-wise comparisons were included for presentation in the present study.
# [4] = Angiomotin like 2 mRNA, AI854404, 160131_at, Cortex, treated vs untreated R6/2
# [5] = Arginine vasopressin mRNA, M88354, 93381_at, Cortex, treated vs untreated R6/2
# [6] = DNAJ/Heat shock protein 40 mRNA, AB028272, 96254_at, Striatum, treated vs untreated R6/2
# [7] = Dynamin mRNA, L31397, 103031_g_at, Cortex, treated vs untreated R6/2
# [8] = Erythroid differentiation regulator mRNA, AJ007909, 98525_f_at, Striatum, treated vs untreated R6/2
# [9] = Hemoglobin, alpha adult chain 1 mRNA, V00714, 94781_at, Striatum + Cortex, treated vs untreated R6/2
# [10] = Hemoglobin, beta 1 mRNA, V00722, 103534_at, Cortex, treated vs untreated R6/2
# [11] = Hemoglobin, beta adult major chain mRNA, J00413, 101869_s_at, Striatum + Cortex, treated vs untreated R6/2
# [12] = Heterogeneous nuclear ribonucleoprotein A1 mRNA, AI183202, 92724_at, Striatum, treated vs untreated R6/2
# [13] = MAP kinase phosphatase-1 (MKP-1) mRNA, X61940, 104598_at, Striatum + Cortex, 1.2 g/kg i.p. 2 weeks vs untreated R6/2
# [14] = MAP kinase phosphatase-3 (MKP-3) mRNA, AI845584, 93285_at, Cortex, treated vs untreated R6/2
# [15] = Microtubule-associated protein tau mRNA, M18775, 102431_at, Cortex, treated vs untreated R6/2
# [16] = Protein phosphatase 1B, beta isoform mRNA, D45859, 101836_at, Striatum, treated vs untreated R6/2
# [17] = Transthyretin mRNA, D00073, 95350_at, Striatum, treated vs untreated R6/2
# [18] = Unknown mRNA, AA711516, 96302_at, Striatum, treated vs untreated R6/2
# [19] = Unknown mRNA, AI153421, 96215_f_at, Striatum, treated vs untreated R6/2
# [20] = Unknown mRNA, AI451558, 97161_at, Striatum, treated vs untreated R6/2
# [21] = Unknown mRNA, AV330064, 161114_i_at, Cortex, treated vs untreated R6/2
# [22] = Unknown mRNA, C79248, 94689_at, Striatum + Cortex, treated vs untreated R6/2
# [23] = c-fos oncogene mRNA, V00727, 160901_at, Cortex, treated vs untreated R6/2
smiles,measurement,setting,value
CCCC(=O)[O-].[Na+] [sodium butyrate],extension of survival,"[1]; 1,200 mg/kg/d i.p. from day 21, vs PBS-treated R6/2 mice, p<0.001",20.8%
same,time at which mice became moribund and died,"[1]; 5 g/kg/d i.p., treatment initiated at 21 days",1 to 11 days
same,morbidity and mortality at onset of treatment,"[1]; 5,000 and 10,000 mg/kg/d i.p.",marked rapidly-coursing morbidity and mortality
same,"PCR, NaBu Txd R6/2 vs R6/2","[2]; MKP-1 mRNA, p<0.05",181%^a
same,"PCR, NaBu Txd R6/2 vs R6/2",[2]; Preproenkephalin mRNA,101%
same,"PCR, NaBu Txd R6/2 vs R6/2","[2]; α-globin mRNA, p<0.01",206%^c
same,"PCR, NaBu Txd R6/2 vs R6/2","[2]; β-globin mRNA, p<0.02",215%^b
same,% Change calls,[3]; [4],100%
same,Direction of change,[3]; [4],Increase
same,% Change calls,[3]; [5],75%
same,Direction of change,[3]; [5],Increase
same,% Change calls,[3]; [6],75%
same,Direction of change,[3]; [6],Increase
same,% Change calls,[3]; [7],75%
same,Direction of change,[3]; [7],Decrease
same,% Change calls,[3]; [8],100%
same,Direction of change,[3]; [8],Decrease
same,% Change calls,[3]; [9],100%
same,Direction of change,[3]; [9],Increase
same,% Change calls,[3]; [10],75%
same,Direction of change,[3]; [10],Increase
same,% Change calls,[3]; [11],100%
same,Direction of change,[3]; [11],Increase
same,% Change calls,[3]; [12],75%
same,Direction of change,[3]; [12],Decrease
same,% Change calls,[3]; [13],100%
same,Direction of change,[3]; [13],Increase
same,% Change calls,[3]; [14],75%
same,Direction of change,[3]; [14],Increase
same,"Array, NaBu Txd R6/2 vs R6/2","[3]; MKP-1 mRNA, Cortex",I
same,"Array, NaBu Txd R6/2 vs R6/2","[3]; MKP-1 mRNA, Striatum",I
same,% Change calls,[3]; [15],75%
same,Direction of change,[3]; [15],Decrease
same,"Array, NaBu Txd R6/2 vs R6/2","[3]; Preproenkephalin mRNA, Striatum",NC
same,% Change calls,[3]; [16],75%
same,Direction of change,[3]; [16],Increase
same,% Change calls,[3]; [17],75%
same,Direction of change,[3]; [17],Decrease
same,% Change calls,[3]; [18],75%
same,Direction of change,[3]; [18],Decrease
same,% Change calls,[3]; [19],75%
same,Direction of change,[3]; [19],Decrease
same,% Change calls,[3]; [20],75%
same,Direction of change,[3]; [20],Decrease
same,% Change calls,[3]; [21],75%
same,Direction of change,[3]; [21],Decrease
same,% Change calls,[3]; [22],75%
same,Direction of change,[3]; [22],Decrease
same,% Change calls,[3]; [23],100%
same,Direction of change,[3]; [23],Increase
same,number of mRNA changes,"[3]; treated R6/2 vs untreated R6/2, striatum and cortex, 1.2 g/kg i.p. 2 weeks",20
same,"Array, NaBu Txd R6/2 vs R6/2","[3]; α-globin mRNA, Cortex",I
same,"Array, NaBu Txd R6/2 vs R6/2","[3]; α-globin mRNA, Striatum",I
same,"Array, NaBu Txd R6/2 vs R6/2","[3]; β-globin mRNA, Cortex",I
same,"Array, NaBu Txd R6/2 vs R6/2","[3]; β-globin mRNA, Striatum",I

# Source: patent US20060069157A1, “Method of ameliorating or abrogating the effects of a neurodegenerative disorder, such as Huntington's disease, by sodium butyrate chemotherapy” (U.S. DEPARTMENT OF VETERANS AFFAIRS, priority 2004, published 2006)
